Columns and labels:
[1] = test system: SNB-19; assay: NCI single-dose growth inhibition screen; assay type: cell-based; details: Homo sapiens; CNS Cancer SNB-19; single dose 10^−5 M
[2] = test system: RPMI-8226; assay: NCI single-dose growth inhibition screen; assay type: cell-based; details: Homo sapiens; Leukemia RPMI-8226; single dose 10^−5 M
[3] = test system: MOLT-4; assay: NCI single-dose growth inhibition screen; assay type: cell-based; details: Homo sapiens; Leukemia MOLT-4; single dose 10^−5 M
[4] = test system: MALME-3 M; assay: NCI single-dose growth inhibition screen; assay type: cell-based; details: Homo sapiens; Melanoma MALME-3 M; single dose 10^−5 M
[5] = test system: UACC-62; assay: NCI single-dose growth inhibition screen; assay type: cell-based; details: Homo sapiens; Melanoma UACC-62; single dose 10^−5 M
[6] = test system: NCI-H322M; assay: NCI single-dose growth inhibition screen; assay type: cell-based; details: Homo sapiens; Non-Small Cell Lung Cancer NCI-H322M; single dose 10^−5 M
[7] = test system: OVCAR-4; assay: NCI single-dose growth inhibition screen; assay type: cell-based; details: Homo sapiens; Ovarian Cancer OVCAR-4; single dose 10^−5 M
[8] = test system: DU-145; assay: NCI single-dose growth inhibition screen; assay type: cell-based; details: Homo sapiens; Prostate Cancer DU-145; single dose 10^−5 M
[9] = test system: MDA-MB231; assay: NCI single-dose growth inhibition screen; assay type: cell-based; details: Homo sapiens, MDA-MB-231; Breast Cancer MDA-MB231; single dose 10^−5 M
[10] = test system: CAKI-1; assay: NCI single-dose growth inhibition screen; assay type: cell-based; details: Homo sapiens; Renal Cancer CAKI-1; single dose 10^−5 M
[11] = test system: S. aureus ATCC 6538; assay: Antibacterial screening, agar cup diffusion method; assay type: cell-based; details: Gram + ve strain; for MIC: Staphylococcus aureus, ATCC6538, read-out: Minimum inhibitory concentrations (MIC, µM) S. aureus ATCC 6538
Procedure: (§1) Anti-bacterial activity of the recently synthesized compounds 3a-k was evaluated at AUMC (Assiut University Mycological Centre), Assiut, Egypt. Assays were done against Gram-negative strains of K. pneumoniae (ATCC 100310, E. coli (ATCC 25922), Pseudomonas aeruginosa (ATCC 27853) and the Gram-positive S. aureus (ATCC 6538) strain utilizing standard agar cup diffusion method. The isolates from the four bacterial species examined were kept in TSB (Trypticase Soya Broth, Becton and Dickinson) with 10% glycerol at -70 °C and then subcultured on TSA (Trypticase Soya Agar, Becton and Dickinson) and TSB for 24 h at 37 °C former to inoculation. Bacterial isolates were then plated on sterile petri plates with 1 × 10^8 CFU/mL (0.5 McFarland turbidity) and 20 mL of Mueller Hinton Agar media (Oxoid) was then loaded. To ensure that the microorganisms were evenly dispersed, the plates were gently rotated before being left to harden on a level surface. Four equally spaced spherical-shaped wells (10 mm diameter) were painstakingly drilled using a sterilized cork bore after media solidification. All tested compounds under test underwent two-fold serial dilutions in a sequential manner. Three replications of 100 µL of each concentration were added to a well using a micropipette. Plates were then incubated for 24-hour at 37 °C. The average of the inhibition zones was then calculated. To determine the MICs, the natural logarithm of each diluted test substance’s concentration was plotted against the average area of the related inhibition zone. Following that, a regression line was created and the intercept on the ‘ln concentration” axis was determined, and the antilogarithm was calculated to indicate the MIC value[34],[63].

[12] = test system: SK-MEL-5; assay: NCI single-dose growth inhibition screen; assay type: cell-based, human; details: Homo sapiens, SK-MEL-5, Melanoma SK-MEL-5; single dose 10^−5 M
[13] = test system: MDA-MB-468; assay: NCI single-dose growth inhibition screen; assay type: cell-based; details: Homo sapiens; Breast Cancer MDA-MB-468; single dose 10^−5 M
[14] = test system: BT-549; assay: NCI single-dose growth inhibition screen; assay type: cell-based; details: Homo sapiens; Breast Cancer BT-549; single dose 10^−5 M
[15] = test system: LOX IMVI; assay: NCI single-dose growth inhibition screen; assay type: cell-based, human; details: Melanoma LOX IMVI, single dose 10^−5 M; for inhibition at 10 µM: Homo sapiens, LOX IMVI
[16] = test system: ACHN; assay: NCI single-dose growth inhibition screen; assay type: cell-based; details: Homo sapiens; Renal Cancer ACHN; single dose 10^−5 M
[17] = test system: MDA-MB-435; assay: NCI single-dose growth inhibition screen; assay type: cell-based; details: Homo sapiens; Melanoma MDA-MB-435; single dose 10^−5 M
[18] = test system: NCI-H460; assay: NCI single-dose growth inhibition screen; assay type: cell-based; details: Homo sapiens; Non-Small Cell Lung Cancer NCI-H460; single dose 10^−5 M
[19] = test system: NCI-H23; assay: NCI single-dose growth inhibition screen; assay type: cell-based; details: Homo sapiens; Non-Small Cell Lung Cancer NCI-H23; single dose 10^−5 M
[20] = test system: K. pneumoniae ATCC 10,031; assay: Antibacterial screening, agar cup diffusion method; assay type: cell-based; details: Klebsiella pneumoniae, ATCC10, Gram –ve strain; read-out: Minimum inhibitory concentrations (MIC, µM) K. pneumoniae ATCC 10,031
[21] = test system: T-47D; assay: NCI single-dose growth inhibition screen; assay type: cell-based; details: Homo sapiens, T47D; Breast Cancer T-47D; single dose 10^−5 M
[22] = test system: SNB-75; assay: NCI single-dose growth inhibition screen; assay type: cell-based, human; details: single dose 10^−5 M; for Growth Inhibition (%): CNS Cancer SNB-75; for inhibition at 10 µM: Homo sapiens, SNB-75, CNS Cancer SNB-75
[23] = test system: SR; assay: NCI single-dose growth inhibition screen; assay type: cell-based; details: Homo sapiens; Leukemia SR; single dose 10^−5 M
[24] = test system: SK-MEL-28; assay: NCI single-dose growth inhibition screen; assay type: cell-based; details: Homo sapiens; Melanoma SK-MEL-28; single dose 10^−5 M
[25] = test system: OVCAR-8; assay: NCI single-dose growth inhibition screen; assay type: cell-based; details: Homo sapiens; Ovarian Cancer OVCAR-8; single dose 10^−5 M
[26] = test system: P. aeruginosa ATCC 27,853; assay: Antibacterial screening, agar cup diffusion method; assay type: cell-based; details: Gram –ve strain; for MIC: Pseudomonas aeruginosa, ATCC27, read-out: Minimum inhibitory concentrations (MIC, µM) P. aeruginosa ATCC 27,853
Procedure: as §1

[27] = test system: A498; assay: NCI single-dose growth inhibition screen; assay type: cell-based, human; details: single dose 10^−5 M; for inhibition at 10 µM: Homo sapiens, A498, Renal Cancer A498; for Growth Inhibition (%): Renal Cancer A498
[28] = test system: K-562; assay: NCI single-dose growth inhibition screen; assay type: cell-based; details: Homo sapiens, K562; Leukemia K-562; single dose 10^−5 M
[29] = test system: PC-3; assay: NCI single-dose growth inhibition screen; assay type: cell-based; details: Homo sapiens; Prostate Cancer PC-3; single dose 10^−5 M
[30] = test system: human melanoma LOX IMVI; assay: cells; details: for IC50: read-out: In vitro cytotoxicity (IC50) LOX IMVI (µM ± SEM)
[31] = test system: EKVX; assay: NCI single-dose growth inhibition screen; assay type: cell-based; details: Homo sapiens; Non-Small Cell Lung Cancer EKVX; single dose 10^−5 M
[32] = test system: SF-268; assay: NCI single-dose growth inhibition screen; assay type: cell-based; details: Homo sapiens; CNS Cancer SF-268; single dose 10^−5 M
[33] = test system: A498 renal cancer cell line; assay: cells; details: Homo sapiens; for viability at 0.4 µM / viability at 1.6 µM / viability at 25 µM / viability at 100 µM: A498; for IC50: A498, read-out: In vitro cytotoxicity (IC50) A498 cell line (µM ± SEM)
[34] = test system: NCI-H522; assay: NCI single-dose growth inhibition screen; assay type: cell-based; details: Homo sapiens; Non-Small Cell Lung Cancer NCI-H522; single dose 10^−5 M
[35] = test system: CCRF-CEM; assay: NCI single-dose growth inhibition screen; assay type: cell-based; details: Homo sapiens; Leukemia CCRF-CEM; single dose 10^−5 M

O=C(O)c1cn(C2CC2)c2cc(N3CCN(C(=O)CCCN4C(=O)CSC4=O)CC3)c(F)cc2c1=O [3 L, 1-Cyclopropyl-7-(4-(4-(2,4-dioxothiazolidin-3-yl)butanoyl)piperazin-1-yl)-6-fluoro-4-oxo-1,4-dihydroquinoline-3-carboxylic acid]
inhibition at 10 µM [1]: 0%
inhibition at 10 µM [2]: 6%
inhibition at 10 µM [3]: < 0%
inhibition at 10 µM [4]: < 0%
inhibition at 10 µM [5]: 8.4%
inhibition at 10 µM [6]: 0%
inhibition at 10 µM [7]: 19.2%
inhibition at 10 µM [8]: 8.3%
melting point: 230 °C
inhibition at 10 µM [9]: 10.1%
inhibition at 10 µM [10]: 22.7%
MIC [11]: > 20 µM
inhibition at 10 µM [12]: < 0%
inhibition at 10 µM [13]: 2.1%
inhibition at 10 µM [14]: 4.8%
inhibition at 10 µM [15]: 0%
Growth Inhibition (%) [15]: - (- means no detected activity)
inhibition at 10 µM [16]: 0.6%
inhibition at 10 µM [17]: < 0%
inhibition at 10 µM [18]: 0%
inhibition at 10 µM [19]: 5.7%
MIC [20]: > 20 µM
inhibition at 10 µM [21]: < 0%
Growth Inhibition (%) [22]: 51.1%
inhibition at 10 µM [22]: 51.1%
inhibition at 10 µM [23]: < 0%
inhibition at 10 µM [24]: 49.5%
inhibition at 10 µM [25]: < 0%
MIC [26]: > 20 µM
inhibition at 10 µM [27]: 45.1%
Growth Inhibition (%) [27]: 45.1%
inhibition at 10 µM [28]: < 0%
inhibition at 10 µM [29]: 2.4%
viability at 0.4 µM [30]: 84.8%
viability at 1.6 µM [30]: 78.9%
viability at 25 µM [30]: 59.8%
viability at 100 µM [30]: 49.1%
IC50 [30]: 109 ± 6.15 µM
inhibition at 10 µM [31]: 23.8%
inhibition at 10 µM [32]: 15.1%
viability at 0.4 µM [33]: 92.2%
viability at 1.6 µM [33]: 80.2%
viability at 25 µM [33]: 59.6%
viability at 100 µM [33]: 49.1%
IC50 [33]: 80.7 ± 4.55 µM

O=C(O)c1cn(C2CC2)c2cc(N3CCN(C(=O)CCCN4C(=O)S/C(=C\c5ccc([N+](=O)[O-])cc5)C4=O)CC3)c(F)cc2c1=O [3k]
inhibition at 10 µM [1]: < 0%
inhibition at 10 µM [2]: 8.7%
inhibition at 10 µM [3]: < 0%
inhibition at 10 µM [4]: < 0%
inhibition at 10 µM [5]: 2%
inhibition at 10 µM [6]: < 0%
inhibition at 10 µM [7]: 13.7%
inhibition at 10 µM [8]: 7%
melting point: 299 to 300 °C
inhibition at 10 µM [9]: 11.2%
inhibition at 10 µM [10]: 19.5%
MIC [11]: > 20 µM
inhibition at 10 µM [12]: 0.8%
inhibition at 10 µM [13]: < 0%
inhibition at 10 µM [14]: 1%
inhibition at 10 µM [15]: 8.88%
Growth Inhibition (%) [15]: 8.9%
inhibition at 10 µM [16]: 0.1%
inhibition at 10 µM [17]: < 0%
inhibition at 10 µM [18]: < 0%
inhibition at 10 µM [19]: 6.2%
inhibition at 10 µM [21]: < 0%
Growth Inhibition (%) [22]: 42.5%
inhibition at 10 µM [22]: 42.5%
inhibition at 10 µM [23]: 9.7%
inhibition at 10 µM [24]: < 0%
inhibition at 10 µM [25]: < 0%
MIC [26]: > 20 µM
inhibition at 10 µM [28]: < 0%
inhibition at 10 µM [29]: < 0%
viability at 0.4 µM [30]: 110%
viability at 1.6 µM [30]: 102%
viability at 25 µM [30]: 80.2%
viability at 100 µM [30]: 65.4%
IC50 [30]: > 150 µM
inhibition at 10 µM [31]: 24.4%
inhibition at 10 µM [32]: 13.3%
viability at 0.4 µM [33]: 103%
viability at 1.6 µM [33]: 93.1%
viability at 25 µM [33]: 72.6%
viability at 100 µM [33]: 60.5%
IC50 [33]: > 150 µM

O=C(O)c1cn(C2CC2)c2cc(N3CCN(C(=O)CCCN4C(=O)S/C(=C\c5ccc(F)cc5)C4=O)CC3)c(F)cc2c1=O [3i]
inhibition at 10 µM [1]: 6.2%
inhibition at 10 µM [2]: < 0%
inhibition at 10 µM [3]: < 0%
inhibition at 10 µM [4]: 14.8%
inhibition at 10 µM [5]: 19.3%
inhibition at 10 µM [6]: 11.5%
inhibition at 10 µM [7]: 0.5%
inhibition at 10 µM [8]: < 0%
inhibition at 10 µM [34]: 22.9%
inhibition at 10 µM [9]: 26.4%
inhibition at 10 µM [10]: 4.9%
Minimum inhibitory concentrations (MIC, µM) S. aureus ATCC 6538 [11]: did not show considerable anti-bacterial activity
MIC [11]: > 20 µM
inhibition at 10 µM [12]: 5.5%
inhibition at 10 µM [13]: 7.6%
inhibition at 10 µM [14]: 8.6%
inhibition at 10 µM [15]: 51.3%
Growth Inhibition (%) [15]: 51.3%
inhibition at 10 µM [16]: 4.6%
inhibition at 10 µM [17]: 1.6%
inhibition at 10 µM [18]: < 0%
inhibition at 10 µM [35]: 4.2%
inhibition at 10 µM [19]: 6.5%
MIC [20]: > 20 µM
inhibition at 10 µM [21]: 5%
inhibition at 10 µM [22]: 16.5%
inhibition at 10 µM [23]: 3.6%
inhibition at 10 µM [24]: 1.5%
inhibition at 10 µM [25]: 6.8%
Minimum inhibitory concentrations (MIC, µM) P. aeruginosa ATCC 27,853 [26]: did not show considerable anti-bacterial activity
MIC [26]: > 20 µM
inhibition at 10 µM [27]: 41.5%
Growth Inhibition (%) [27]: 41.5%
inhibition at 10 µM [28]: < 0%
inhibition at 10 µM [29]: < 0%
viability at 0.4 µM [30]: 74.9%
viability at 1.6 µM [30]: 67.8%
viability at 25 µM [30]: 51.5%
viability at 100 µM [30]: 41.2%
IC50 [30]: 25.4 ± 1.43 µM
inhibition at 10 µM [31]: < 0%
inhibition at 10 µM [32]: 3.1%
viability at 0.4 µM [33]: 95.7%
viability at 1.6 µM [33]: 83.5%
viability at 25 µM [33]: 65%
viability at 100 µM [33]: 52.3%
IC50 [33]: 147 ± 8.3 µM

Source: publication PMC11480511 (Scientific Reports, 2024)
